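Cells were grown in 96-well plates and exposed to each compound for 48 hours at five concentrations; endpoints were interpolated linearly between bracketing concentrations, or set to the highest concentration if not reached. Here, GI50 denotes the concentration required for 50% inhibition of growth. Definition used: TGI = concentration required for complete inhibition of growth.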
How the values were obtained:
Assay in all cases: NCI tumour cell line growth inhibition, 48 h
HOP-92 NSCLC = system: HOP-92 NSCLC
U251 CNS = system: U251 CNS
SN12C renal = system: SN12C renal
NCI-H522 lung = system: NCI-H522 lung
NCI-H460 lung = system: NCI-H460 lung
UACC-257 melanoma = system: UACC-257 melanoma
NCI-H23 lung = system: NCI-H23 lung
CAKI-1 renal = system: CAKI-1 renal
K-562 leukemia = system: K-562 leukemia
MCF7 breast = system: MCF7 breast

| Compound | TGI (HOP-92 NSCLC) [µM] | TGI (U251 CNS) [µM] | TGI (SN12C renal) [µM] | TGI (NCI-H522 lung) [µM] | TGI (NCI-H460 lung) [µM] | TGI (UACC-257 melanoma) [µM] | TGI (NCI-H23 lung) [µM] | TGI (CAKI-1 renal) [µM] | TGI (K-562 leukemia) [µM] | TGI (MCF7 breast) [µM] | GI50 (HOP-92 NSCLC) [µM] | GI50 (U251 CNS) [µM] | GI50 (SN12C renal) [µM] | GI50 (NCI-H522 lung) [µM] | GI50 (NCI-H460 lung) [µM] | GI50 (UACC-257 melanoma) [µM] | GI50 (NCI-H23 lung) [µM] | GI50 (CAKI-1 renal) [µM] | GI50 (K-562 leukemia) [µM] |
| --- | --- | --- | --- | --- | --- | --- | --- | --- | --- | --- | --- | --- | --- | --- | --- | --- | --- | --- | --- |
| CCOP(=O)(OCC)C(C(=O)OC)C(=O)C(=O)Nc1ccc(Cl)cc1Cl (stereo not given) | > 100 | > 100 | > 100 | > 100 | > 100 | > 100 | > 100 | > 100 | > 100 | – | – | – | – | – | – | – | – | – | – |
| Cc1ccc(C)c(N2C/C(=N\NC(=O)CC#N)C(c3nc4ccccc4s3)C(=O)C2=O)c1 (stereo not given) | > 100 | > 100 | > 100 | > 100 | > 100 | > 100 | > 100 | > 100 | – | – | – | – | – | – | – | – | – | – | – |
| O=[N+]([O-])c1cccc(C2=NOC(C3CCCCC3)C2)c1 (stereo not given) | > 100 | > 100 | > 100 | > 100 | > 100 | > 100 | > 100 | – | > 100 | – | – | – | – | – | – | – | – | – | – |
| Cc1cccc(C2=C/C(=C(\SS/C(C(=O)c3ccc(OCC(=O)O)c(Cl)c3Cl)=C3\C=C(c4cccc(C)c4)SS3)C(=O)c3ccc(OCC(=O)O)c(Cl)c3Cl)SS2)c1 | 23.1 | 14.3 | 65.1 | 8.14 | > 68.1 | > 77.3 | 38.7 | 66.3 | 36.2 | – | – | – | – | – | – | – | – | – | – |
| Nc1nc(-c2ccc(Cl)c([N+](=O)[O-])c2)cs1 | 74.6 | > 100 | > 100 | – | > 100 | > 100 | > 100 | > 100 | > 100 | – | – | – | – | – | – | – | – | – | – |
| CN(C(=O)c1ccc([N+](=O)[O-])cc1)c1ccccc1 | > 100 | > 100 | > 100 | > 100 | > 100 | > 100 | > 100 | > 100 | > 10 | – | – | – | – | – | – | – | – | – | – |
| CC(C)(C)c1ccc2c(c1)S(=O)(=O)Nc1ccc(Cl)cc1NS(=O)(=O)c1cc(C(C)(C)C)ccc1OCCOCCOCCO2 | 72.7 | > 100 | > 100 | – | > 100 | > 100 | > 100 | > 100 | > 100 | – | – | – | – | – | – | – | – | – | – |
| CCOCN1COCN(C)C1=O | > 100 | > 100 | > 100 | – | > 100 | > 100 | > 100 | > 100 | > 100 | – | – | – | – | – | – | – | – | – | – |
| COC(=O)/C(=N/O)C(C(=O)C=C(C)C)C(=O)C(=O)Nc1nc2ccc([N+](=O)[O-])cc2s1 (stereo not given) | 42.8 | > 100 | > 100 | > 100 | > 100 | > 100 | 83.2 | 97 | > 100 | – | – | – | – | – | – | – | – | – | – |
| O=C(CC(=O)C1CCOC1=O)C(=O)Nc1cccc(Cl)c1 (stereo not given) | > 100 | > 100 | > 100 | > 100 | > 100 | > 100 | > 100 | > 100 | > 100 | – | – | – | – | – | – | – | – | – | – |
| Nc1c(-c2ccccc2-c2c(N)[n+]([O-])c3ccccc3[n+]2[O-])[n+]([O-])c2ccccc2[n+]1[O-] | > 100 | > 100 | > 100 | 6.87 | 18.5 | 35.2 | > 100 | > 100 | > 71.8 | – | – | – | – | – | – | – | – | – | – |
| N#CC(=Nc1ccccc1N(C(=O)c1ccccc1)C(=O)c1ccccc1)c1ccccc1 | > 93.3 | > 100 | > 100 | > 100 | > 100 | > 100 | > 100 | > 100 | > 60.9 | – | – | – | – | – | – | – | – | – | – |
| COc1ccc(C(=O)c2cc(OC)c(OC)c(OC)c2)cc1OC | – | > 100 | > 100 | 12.3 | > 100 | > 100 | > 100 | – | > 100 | > 100 | – | – | – | – | – | – | – | – | – |
| CCN1c2ccccc2-c2c3c1cc(C)cc3c1ccccc1[n+]2CC | – | 2.68 | 3.35 | 3.52 | 2.73 | 1.65 | 4.08 | 5.88 | 2.12 | – | – | – | – | – | – | – | – | – | – |
| CC1=C(C#N)C(=O)CC(c2ccc(Cl)cc2)N(C)N1 (stereo not given) | > 100 | > 100 | > 100 | > 100 | > 100 | > 100 | > 100 | > 100 | – | – | – | – | – | – | – | – | – | – | – |
| COc1cccc(/C=N/[N-]C(=O)c2ccncc2)c1[O-].COc1cccc(/C=N/[N-]C(=O)c2ccncc2)c1[O-].[O]=[U](=[O])([OH2+])[OH2+] | 54.5 | 40.8 | 32.5 | 11 | > 40.3 | > 54.4 | > 70 | 22.1 | > 100 | – | 14.3 | 4.34 | 7.15 | 2.05 | 3.46 | 4.73 | 3.93 | 3.91 | 5.29 |

— PubChem BioAssay (NCI)
